Measurements taken from patent publication USRE48335E1, “Polymyxin derivatives as antimicrobial compounds” (priority 2014, dated 2020).
Values after ≈ are worked out from the molar mass of the structure shown. Like-named read-outs stand apart in the source and are kept apart here. Positions of bridges follow the written chain, without caps; N, C: chain ends. Non-standard residues stand in square brackets, D forms with d. Residues, ends and D or L forms follow the SMILES beside them. *: point of attachment. Phenylacetyl(3-Cl) = O=C(Cc1cccc(Cl)c1)*; Phenylacetyl(4-Cl) = O=C(Cc1ccc(Cl)cc1)*; Benzoyl(4-Et) = CCc1ccc(C(=O)*)cc1; X13 = O=C(Cc1ccc(Cl)cc1Cl)*; X22 = CC(C)c1ccc(C(=O)*)cc1; X14 = Cc1ccc(C(=O)*)cc1C; Dab = NCC[C@H](N)C(=O)O; Abu = CC[C@H](N)C(=O)O; Dap = NC[C@H](N)C(=O)O

Key:
[1] = system: P. aeruginosa ATCC 27853; test: In vivo efficacy in mouse blood infection model (neutropenic Swiss mice); conditions: compound, free base 4 mg/kg intravenously 2 h after inoculation, blood at 4 h
Experimental: P. aeruginosa ATCC 27853, A. baumannii ATCC 19606 and K. pneumoniae FADDI-KP032 were subcultured on nutrient agar plates. One colony of each bacterial strain was dispersed in 10-mL CAMHB and incubated overnight. On day 2, an aliquot (0.2 mL) of each overnight culture suspension was dispersed in 20-mL CAMHB and incubated for 1.5-2.5 h for production of early log-phase growth bacterial culture. The bacteria in the early log-phase growth suspension were concentrated by centrifugation (3,220 g for 10 min) and re-suspended in sterile 0.9% saline for inoculation into mice. The bacterial cell concentration (colony forming unit [CFU]/mL) in saline was estimated by determining the optical density (OD) of the suspension at 600 nm, and confirmed by plating the suspension on nutrient agar plates. Swiss mice (22 to 28 g) were rendered neutropenic by injecting two doses of cyclophosphamide intraperitoneally, −4 day (150 mg/kg) and −1 day (100 mg/kg) prior to inoculation. Bloodstream infection was established by injecting intravenously 50 μL of early log-phase bacterial suspension (10^8-10^9 CFU/mL). The exact injection volume for each bacterial suspension was calculated based upon the OD value of the bacterial suspension and the desired inoculum for each isolate.
Solutions for administration of colistin, polymyxin B or the compounds were prepared at a concentration of 1 mg (free base) per mL in sterile 0.9% saline. At 2 h after inoculation, a mouse in the treatment groups was injected intravenously with one of the above solutions at 4 μL/g body weight (BW) (i.e. free base 4 mg/kg BW), while the same volume of saline was injected into the control mice. At 0 h or at 4 h after the administration of antibacterial drug or saline (control), animals were euthanised by inhalation of overdose isoflurane. The skin on the chest and fore-paws of each animal was thoroughly cleansed with 70% ethanol and Betadine®. The blood was collected via cardiac puncture using a 1-mL syringe rinsed with heparin (5,000 IU/mL), diluted serially in sterile 0.9% saline and plated on nutrient agar plates using a spiral plater.
The agar plates were incubated at 37° C. overnight. The bacterial colonies on the plate were counted and CFU/mL of the blood was calculated. The log10 CFU/mL of blood in each mouse was calculated. The in vivo activity of the compounds against the bacteria was calculated as the difference of the log10 CFU/mL values between the treated mice and the control mice at 4 h (Δ log=log10 (treated)CFU/mL−log10 (control)CFU/mL).
Any compound showing a decrease in bacterial loading (Δ log) of ≥2 at 4 h is considered to have good in vivo efficacy in this initial screening model.

[2] = system: Enterobacter cloacae
Procedure, shortened: (§1)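 Minimum inhibitory concentrations come from CLSI-standard broth microdilution in cation-adjusted Mueller-Hinton broth.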

[3] = system: Acinetobacter baumannii
Procedure, shortened: as §1

[4] = system: Pseudomonas aeruginosa
Procedure, shortened: as §1

[5] = system: Klebsiella pneumoniae
Procedure, shortened: as §1

Row | Compound | Δ log (Treated-Control at 4 h) [1] | Minimum inhibitory concentration, Ec FADDI-EC001 [2] | Minimum inhibitory concentration, Ec FADDI-EC003 [2] | Minimum inhibitory concentration, Ec FADDI-EC006 [2] | MIC [3] | Minimum inhibitory concentration, Ab A ATCC 17978 [3] | Minimum inhibitory concentration, Ab ATCC 19606 [3] | Minimum inhibitory concentration, Ab FADDI-AB034 [3] | MIC [4] | Minimum inhibitory concentration, Pa ATCC 27853 [4] | Minimum inhibitory concentration, Pa FADDI-PA022 [4] | Minimum inhibitory concentration, Pa FADDI-PA025 [4] | MIC [5] | also measured
1 | CC(C)C[C@H]1NC(=O)[C@H](CCN)NC(=O)[C@@H](NC(=O)[C@H](CN)NC(=O)[C@@H](NC(=O)[C@H](CCN)NC(=O)Cc2cccc(Cl)c2)[C@@H](C)O)CCNC(=O)[C@H]([C@@H](C)O)NC(=O)[C@H](CCN)NC(=O)[C@H](CCN)NC(=O)[C@H]([C@@H](C)O)NC1=O [Compound 61] ({Phenylacetyl(3-Cl)}-[Dab]T[Dap][Dab][Dab][dL]T[Dab][Dab]T; lactam 4-C) | −4.75 log10 CFU/mL | – | – | – | – | – | – | – | – | – | – | – | – | Minimum inhibitory concentration, Ec FADDI-EC001 ([2]; Enterobacter cloacae FADDI-EC001, broth microdilution in CAMHB): 0.25 µg/mL (≈ 0.216 µM); Minimum inhibitory concentration, Ec FADDI-EC003 ([2]; Enterobacter cloacae FADDI-EC003, broth microdilution in CAMHB): 0.25 µg/mL (≈ 0.216 µM); Minimum inhibitory concentration, Ec FADDI-EC006 ([2]; Enterobacter cloacae FADDI-EC006, broth microdilution in CAMHB): 0.25 µg/mL (≈ 0.216 µM); MIC ([3]; A. baumannii ATCC 19606): 4 µg/mL (≈ 3.46 µM); Minimum inhibitory concentration, Ab A ATCC 17978 ([3]; Acinetobacter baumannii ATCC 17978, broth microdilution in CAMHB): 2 µg/mL (≈ 1.73 µM); Minimum inhibitory concentration, Ab ATCC 19606 ([3]; Acinetobacter baumannii ATCC 19606, broth microdilution in CAMHB): 4 µg/mL (≈ 3.46 µM); Minimum inhibitory concentration, Ab FADDI-AB034 ([3]; Acinetobacter baumannii FADDI-AB034, broth microdilution in CAMHB): 1 µg/mL (≈ 0.865 µM); MIC ([4]; P. aeruginosa ATCC 27853): 0.5 µg/mL (≈ 0.433 µM); Minimum inhibitory concentration, Pa ATCC 27853 ([4]; Pseudomonas aeruginosa ATCC 27853, broth microdilution in CAMHB): 0.5 µg/mL (≈ 0.433 µM); Minimum inhibitory concentration, Pa FADDI-PA022 ([4]; Pseudomonas aeruginosa FADDI-PA022, broth microdilution in CAMHB): 0.5 µg/mL (≈ 0.433 µM); Minimum inhibitory concentration, Pa FADDI-PA025 ([4]; Pseudomonas aeruginosa FADDI-PA025, broth microdilution in CAMHB): >32 µg/mL; MIC ([5]; K. pneumoniae FADDI-KP032): 0.25 µg/mL (≈ 0.216 µM)
2 | CC(C)C[C@H]1NC(=O)[C@H](CCN)NC(=O)[C@@H](NC(=O)[C@H](CN)NC(=O)[C@@H](NC(=O)[C@H](CCN)NC(=O)Cc2ccc(Cl)cc2Cl)[C@@H](C)O)CCNC(=O)[C@H]([C@@H](C)O)NC(=O)[C@H](CCN)NC(=O)[C@H](CCN)NC(=O)[C@H]([C@@H](C)O)NC1=O [Compound 62] (X13-[Dab]T[Dap][Dab][Dab][dL]T[Dab][Dab]T; lactam 4-C) | −2.69 log10 CFU/mL | <0.125 µg/mL | <0.125 µg/mL | 0.25 µg/mL (≈ 0.21 µM) | 2 µg/mL (≈ 1.68 µM) | 1 µg/mL (≈ 0.84 µM) | 2 µg/mL (≈ 1.68 µM) | 1 µg/mL (≈ 0.84 µM) | 0.5 µg/mL (≈ 0.42 µM) | 0.5 µg/mL (≈ 0.42 µM) | 1 µg/mL (≈ 0.84 µM) | 1 µg/mL (≈ 0.84 µM) | 0.25 µg/mL (≈ 0.21 µM) | –
3 | CC[C@@H]1NC(=O)[C@@H](CC(C)C)NC(=O)[C@H](CCN)NC(=O)[C@@H](NC(=O)[C@H](CN)NC(=O)[C@@H](NC(=O)[C@H](CCN)NC(=O)Cc2ccc(Cl)cc2Cl)[C@@H](C)O)CCNC(=O)[C@H]([C@@H](C)O)NC(=O)[C@H](CCN)NC(=O)[C@H](CCN)NC1=O [Compound 70] (X13-[Dab]T[Dap][Dab][Dab][dL][Abu][Dab][Dab]T; lactam 4-C) | −3.11 log10 CFU/mL | 0.5 µg/mL (≈ 0.426 µM) | 0.25 µg/mL (≈ 0.213 µM) | 0.5 µg/mL (≈ 0.426 µM) | 0.5 µg/mL (≈ 0.426 µM) | 0.5 µg/mL (≈ 0.426 µM) | 0.5 µg/mL (≈ 0.426 µM) | 1 µg/mL (≈ 0.852 µM) | 1 µg/mL (≈ 0.852 µM) | 1 µg/mL (≈ 0.852 µM) | 1 µg/mL (≈ 0.852 µM) | 2 µg/mL (≈ 1.7 µM) | 0.25 µg/mL (≈ 0.213 µM) | –
4 | CC[C@@H]1NC(=O)[C@@H](CC(C)C)NC(=O)[C@H](CCN)NC(=O)[C@@H](NC(=O)[C@H](CN)NC(=O)[C@@H](NC(=O)[C@H](CCN)NC(=O)Cc2ccc(Cl)cc2)[C@@H](C)O)CCNC(=O)[C@H]([C@@H](C)O)NC(=O)[C@H](CCN)NC(=O)[C@H](CCN)NC1=O [Compound 77] ({Phenylacetyl(4-Cl)}-[Dab]T[Dap][Dab][Dab][dL][Abu][Dab][Dab]T; lactam 4-C) | −2.28 log10 CFU/mL | 0.5 µg/mL (≈ 0.439 µM) | <0.125 µg/mL | 0.25 µg/mL (≈ 0.219 µM) | 4 µg/mL (≈ 3.51 µM) | 0.5 µg/mL (≈ 0.439 µM) | 4 µg/mL (≈ 3.51 µM) | 1 µg/mL (≈ 0.877 µM) | 0.25 µg/mL (≈ 0.219 µM) | 0.25 µg/mL (≈ 0.219 µM) | 0.5 µg/mL (≈ 0.439 µM) | 4 µg/mL (≈ 3.51 µM) | <0.125 µg/mL | –
5 | CC[C@@H]1NC(=O)[C@@H](CC(C)C)NC(=O)[C@H](CCN)NC(=O)[C@@H](NC(=O)[C@H](CN)NC(=O)[C@@H](NC(=O)[C@H](CCN)NC(=O)c2ccc(C)c(C)c2)[C@@H](C)O)CCNC(=O)[C@H]([C@@H](C)O)NC(=O)[C@H](CCN)NC(=O)[C@H](CCN)NC1=O [Compound 83] (X14-[Dab]T[Dap][Dab][Dab][dL][Abu][Dab][Dab]T; lactam 4-C) | −3.63 log10 CFU/mL | 0.25 µg/mL (≈ 0.223 µM) | 0.25 µg/mL (≈ 0.223 µM) | 0.25 µg/mL (≈ 0.223 µM) | 2 µg/mL (≈ 1.79 µM) | 1 µg/mL (≈ 0.893 µM) | 2 µg/mL (≈ 1.79 µM) | 0.5 µg/mL (≈ 0.447 µM) | 1 µg/mL (≈ 0.893 µM) | 1 µg/mL (≈ 0.893 µM) | 1 µg/mL (≈ 0.893 µM) | 2 µg/mL (≈ 1.79 µM) | 0.25 µg/mL (≈ 0.223 µM) | –
6 | CC[C@@H]1NC(=O)[C@@H](CC(C)C)NC(=O)[C@H](CCN)NC(=O)[C@@H](NC(=O)[C@H](CN)NC(=O)[C@@H](NC(=O)[C@H](CCN)NC(=O)c2ccc(C(C)C)cc2)[C@@H](C)O)CCNC(=O)[C@H]([C@@H](C)O)NC(=O)[C@H](CCN)NC(=O)[C@H](CCN)NC1=O [Compound 99] (X22-[Dab]T[Dap][Dab][Dab][dL][Abu][Dab][Dab]T; lactam 4-C) | −3.21 log10 CFU/mL | 0.25 µg/mL (≈ 0.221 µM) | 0.25 µg/mL (≈ 0.221 µM) | 0.5 µg/mL (≈ 0.441 µM) | 1 µg/mL (≈ 0.882 µM) | 0.25 µg/mL (≈ 0.221 µM) | 1 µg/mL (≈ 0.882 µM) | 0.25 µg/mL (≈ 0.221 µM) | 1 µg/mL (≈ 0.882 µM) | 1 µg/mL (≈ 0.882 µM) | 0.5 µg/mL (≈ 0.441 µM) | 2 µg/mL (≈ 1.76 µM) | 0.5 µg/mL (≈ 0.441 µM) | –
7 | CCc1ccc(C(=O)N[C@@H](CCN)C(=O)N[C@H](C(=O)N[C@@H](CN)C(=O)N[C@H]2CCNC(=O)[C@H]([C@@H](C)O)NC(=O)[C@H](CCN)NC(=O)[C@H](CCN)NC(=O)[C@H](CC)NC(=O)[C@@H](CC(C)C)NC(=O)[C@H](CCN)NC2=O)[C@@H](C)O)cc1 [Compound 100] ({Benzoyl(4-Et)}-[Dab]T[Dap][Dab][Dab][dL][Abu][Dab][Dab]T; lactam 4-C) | −3.83 (−3.83) log10 CFU/mL | 0.25 µg/mL (≈ 0.223 µM) | 0.5 µg/mL (≈ 0.447 µM) | 0.5 µg/mL (≈ 0.447 µM) | 2 µg/mL (≈ 1.79 µM) | 1 µg/mL (≈ 0.893 µM) | 2 µg/mL (≈ 1.79 µM) | 1 µg/mL (≈ 0.893 µM) | 0.5 µg/mL (≈ 0.447 µM) | 0.5 µg/mL (≈ 0.447 µM) | 0.5 µg/mL (≈ 0.447 µM) | 2 µg/mL (≈ 1.79 µM) | 0.5 µg/mL (≈ 0.447 µM) | –
